According to US20040192751A1, “Amino acid composition for ameliorating liver failure” (priority 2001, published 2004):

How the values were obtained:
[1] = system: mice in which alcoholic functional disorders of a liver were developed; test: Serum GOT concentration 12 hours after ethanol administration in mice pre-administered amino acid compositions; assay type: in vivo; conditions: judged from GOT and GPT values 12 h after ethanol
Procedure: In the present Examples, outbreak and healing of functional disorders of a liver were judged by employing GOT (Glutamic Oxaloacetic Transaminase), GPT (Glutamic Pyruvic Transaminase), total cholesterol and triglyceride which are indexes for functional disorders of the liver.
(§1) Measurements were conducted using a clinical diagnosis kit available from Wako Pure Chemical Industries, Ltd.
The following reagents were used for measurement of GOT.
The action of the substrate enzyme liquid to a specimen to be measured generates glutamic acid and oxalacetic acid from L-aspartic acid and α-keto glutaric acid, respectively, by means of GOT in the specimen. […]
The hydrogen peroxide thus produced quantitatively and oxidatively condenses the TOOS and 4-aminoantipyrine to generate violet pigment (refer to Formula 1) by the action of the co-existing peroxidase (POD).
The active value of the GOT in the specimen is measured by the violet absorbance. The ascorbic acid contained in the specimen is decomposed by the ascorbic acid oxidase contained in the substrate enzyme liquid, thereby affecting little influence on the measured value. […]
After a standard specimen having a known concentration prepared by using the standard liquid was preliminarily heated and the substrate buffer was added thereto, the absorbance of the standard specimen was measured and a calibration curve was prepared using the measured values. […]

[2] = system: mice in which alcoholic functional disorders of a liver were developed; test: Total cholesterol amount in the liver 12 hours after ethanol administration; assay type: in vivo; conditions: 12 hours following the ethanol administration; control = no administration
Procedure: as §1
The following reagents were used for the measurement of the total cholesterol.
The action of the color generating agent to a specimen to be measured decomposes the cholesterols into the liberated cholesterols and fatty acids by the action of the cholesterol esterase. The cholesterols thus generated together with the liberated cholesterols already existing are oxidized to produce hydrogen peroxide by means of the action of the cholesterol oxidase. The hydrogen peroxide thus produced quantitatively and oxidatively condenses the phenols and 4-aminoantipyrine to generate red pigment (red quinone-based pigment, refer to Formula 3) by the action of the peroxidase (POD).
The concentration of the total cholesterol in the specimen was determined by measuring the red absorbance.
After 0.01 ml of the specimen was dissolved in isopropanol, 1.5ml of the color producing agent was added therein followed by heating at 37° C. for 10 minutes under sufficient agitation. The absorbance of the specimen at 505 nm was measured by using a blind specimen as reference by means of a spectrophotometer. […]

| Structure (SMILES) | action for improving functional disorders of the liver using GOT and GPT as the indexes [1] | total cholesterol in the liver, compared with control (FIG. 5) [2] |
| --- | --- | --- |
| N[C@@H](Cc1c[nH]c2ccccc12)C(=O)O [2% Trp, tryptophane] | next most effective | values lower than those of the control |
| N[C@@H](Cc1ccc(O)cc1)C(=O)O [0.25% Tyr, tyrosine] | next most effective | values lower than those of the control |
